Data from patent US11008314B2, “Compounds and methods for modulating interleukin-2-inducible t-cell kinase” (CORVUS PHARMACEUTICALS, INC., priority 2016, dated 2021).

Key:
Format in all cases: biochemical
JAK3 = JAK3 (Homo sapiens (Human), UniProt P52333); assay: IC50 against JAK3
TXK = TXK (Homo sapiens (Human), UniProt P42681); assay: IC50 against TXK; conditions: for TXK/ITK: ratio of TXK IC50 to ITK IC50
ITK = ITK (Homo sapiens (Human), UniProt Q08881); assay: IC50 against ITK
BTK = BTK (Homo sapiens (Human), UniProt Q06187); assay: IC50 against BTK
Sequence of BTK (Q06187 whole entry, species assumed): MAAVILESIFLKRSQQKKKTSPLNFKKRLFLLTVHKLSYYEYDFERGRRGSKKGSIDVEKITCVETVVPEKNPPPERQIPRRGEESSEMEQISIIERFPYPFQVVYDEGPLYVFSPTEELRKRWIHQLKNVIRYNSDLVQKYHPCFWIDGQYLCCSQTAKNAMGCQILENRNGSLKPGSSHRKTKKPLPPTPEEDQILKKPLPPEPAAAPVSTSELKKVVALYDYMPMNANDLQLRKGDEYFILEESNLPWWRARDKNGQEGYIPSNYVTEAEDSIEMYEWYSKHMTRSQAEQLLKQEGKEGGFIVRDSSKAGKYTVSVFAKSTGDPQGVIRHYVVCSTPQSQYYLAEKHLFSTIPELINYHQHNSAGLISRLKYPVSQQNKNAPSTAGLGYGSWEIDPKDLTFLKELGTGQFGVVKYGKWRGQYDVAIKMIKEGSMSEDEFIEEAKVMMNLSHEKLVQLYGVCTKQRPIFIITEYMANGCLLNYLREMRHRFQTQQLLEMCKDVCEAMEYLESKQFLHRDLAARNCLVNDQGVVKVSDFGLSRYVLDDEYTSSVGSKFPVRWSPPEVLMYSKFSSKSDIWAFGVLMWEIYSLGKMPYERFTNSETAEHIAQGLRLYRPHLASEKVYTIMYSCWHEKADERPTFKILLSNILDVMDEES

Sequence of ITK (Q08881 whole entry): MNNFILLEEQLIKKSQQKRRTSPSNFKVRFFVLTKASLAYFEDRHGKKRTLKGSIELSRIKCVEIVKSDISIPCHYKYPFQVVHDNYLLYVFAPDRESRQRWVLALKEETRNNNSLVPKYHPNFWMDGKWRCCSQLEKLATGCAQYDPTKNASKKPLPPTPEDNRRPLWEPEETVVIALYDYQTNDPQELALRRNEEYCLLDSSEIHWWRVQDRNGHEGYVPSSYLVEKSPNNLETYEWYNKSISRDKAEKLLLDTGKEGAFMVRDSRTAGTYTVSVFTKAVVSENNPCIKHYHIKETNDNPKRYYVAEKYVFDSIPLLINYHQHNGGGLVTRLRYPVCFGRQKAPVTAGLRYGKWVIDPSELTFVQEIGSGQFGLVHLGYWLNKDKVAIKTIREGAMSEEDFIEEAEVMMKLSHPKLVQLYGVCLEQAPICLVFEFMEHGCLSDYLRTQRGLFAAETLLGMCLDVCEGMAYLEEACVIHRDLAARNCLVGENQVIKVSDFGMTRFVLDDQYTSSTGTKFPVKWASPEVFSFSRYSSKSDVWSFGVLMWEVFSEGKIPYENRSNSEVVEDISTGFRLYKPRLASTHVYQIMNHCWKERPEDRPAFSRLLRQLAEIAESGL
Sequence of JAK3 (P52333 whole entry, species assumed): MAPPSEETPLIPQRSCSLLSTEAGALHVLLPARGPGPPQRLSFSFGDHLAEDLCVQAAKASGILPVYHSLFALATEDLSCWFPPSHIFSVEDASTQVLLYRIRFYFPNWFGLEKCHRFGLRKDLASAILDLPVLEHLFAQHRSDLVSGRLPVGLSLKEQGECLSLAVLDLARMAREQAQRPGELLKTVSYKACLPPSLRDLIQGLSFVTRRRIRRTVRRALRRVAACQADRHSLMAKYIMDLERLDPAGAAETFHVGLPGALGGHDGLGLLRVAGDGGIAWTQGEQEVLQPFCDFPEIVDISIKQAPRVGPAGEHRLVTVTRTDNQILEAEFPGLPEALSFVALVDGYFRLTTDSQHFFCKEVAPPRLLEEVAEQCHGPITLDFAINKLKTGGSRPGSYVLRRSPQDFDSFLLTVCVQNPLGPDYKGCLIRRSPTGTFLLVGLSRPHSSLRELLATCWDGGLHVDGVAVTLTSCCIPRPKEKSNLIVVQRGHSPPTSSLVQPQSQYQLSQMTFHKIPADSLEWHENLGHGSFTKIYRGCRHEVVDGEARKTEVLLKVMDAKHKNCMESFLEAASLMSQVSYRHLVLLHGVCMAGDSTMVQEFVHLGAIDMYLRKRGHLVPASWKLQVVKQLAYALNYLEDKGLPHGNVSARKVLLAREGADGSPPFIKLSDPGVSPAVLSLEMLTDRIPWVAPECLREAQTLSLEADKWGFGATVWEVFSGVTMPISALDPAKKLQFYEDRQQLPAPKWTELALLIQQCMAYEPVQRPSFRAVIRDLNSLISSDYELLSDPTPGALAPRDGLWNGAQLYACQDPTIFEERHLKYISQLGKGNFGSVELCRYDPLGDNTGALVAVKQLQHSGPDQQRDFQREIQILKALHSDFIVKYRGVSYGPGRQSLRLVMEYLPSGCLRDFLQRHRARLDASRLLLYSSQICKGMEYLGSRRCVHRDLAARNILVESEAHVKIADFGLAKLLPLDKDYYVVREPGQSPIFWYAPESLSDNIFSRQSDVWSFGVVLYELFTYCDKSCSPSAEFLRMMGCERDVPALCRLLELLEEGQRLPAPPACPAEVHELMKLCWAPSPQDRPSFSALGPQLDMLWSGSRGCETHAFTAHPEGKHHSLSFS
Sequence of TXK (P42681 whole entry, species assumed): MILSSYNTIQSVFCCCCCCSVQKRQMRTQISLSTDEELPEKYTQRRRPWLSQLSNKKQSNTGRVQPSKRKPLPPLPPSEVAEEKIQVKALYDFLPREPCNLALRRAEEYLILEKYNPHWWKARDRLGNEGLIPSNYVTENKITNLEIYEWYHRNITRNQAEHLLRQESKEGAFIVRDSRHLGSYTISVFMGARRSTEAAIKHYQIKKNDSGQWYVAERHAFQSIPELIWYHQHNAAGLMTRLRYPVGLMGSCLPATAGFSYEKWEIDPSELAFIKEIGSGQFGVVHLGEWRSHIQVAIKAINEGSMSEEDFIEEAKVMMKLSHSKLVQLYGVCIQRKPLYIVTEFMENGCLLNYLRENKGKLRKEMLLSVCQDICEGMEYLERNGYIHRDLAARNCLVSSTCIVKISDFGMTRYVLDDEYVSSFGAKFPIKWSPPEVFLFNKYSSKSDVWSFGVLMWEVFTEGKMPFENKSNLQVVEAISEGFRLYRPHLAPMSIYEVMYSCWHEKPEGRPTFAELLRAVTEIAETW

Q: Which results are given for `C=CC(=O)N1CCN(C(=O)c2cc(Sc3cnc(NC(=O)c4ccc(N5CCN(C(=O)CCOCCOCCOCCOCCNC(=O)CCCCC6SCC7NC(=O)NC76)CC5)cc4)s3)c(C)cc2OC)CC1` (stereo not drawn) [Compound 41]?
A: IC50 (JAK3): 10 to 100 nM; IC50 (TXK): 10 to 100 nM; TXK/ITK (TXK): 21.91; IC50 (ITK): < 10 nM; IC50 (BTK): 10 to 100 nM

Q: What does the source list for `C=CC(=O)N1CCN(C(=O)c2cc(Sc3cnc(NC(=O)C4CC4)s3)c(C)cc2OC)C[C@H]1CC` [Compound 42]?
A: IC50 (JAK3): 1000 to 10000 nM; IC50 (TXK): 10 to 100 nM; TXK/ITK (TXK): 10.152; IC50 (ITK): < 10 nM; IC50 (BTK): 1000 to 10000 nM

Q: Which results are given for `C=CC(=O)N1CCN(C(=O)c2cc(Sc3cnc(NC(=O)C4CC4)s3)c(C)cc2OC)C[C@H]1C#N` [Compound 43]?
A: IC50 (JAK3): 10 to 100 nM; IC50 (TXK): < 10 nM; TXK/ITK (TXK): 3.4821; IC50 (ITK): < 10 nM; IC50 (BTK): 10 to 100 nM

Q: Which IC50 (JAK3) does the source give for `C=CC(=O)N1CC2(CCN(C(=O)c3cc(Sc4cnc(NC(=O)C5CC5)s4)c(C)cc3OC)C2)C1` [Compound 45] here?
A: 10 to 100 nM

Q: And the IC50 (TXK)?
A: < 10 nM

Q: What about the TXK/ITK (TXK) of the same compound?
A: 4.1551

Q: And the IC50 (ITK)?
A: < 10 nM

Q: And the IC50 (BTK)?
A: 10 to 100 nM

Q: How did the IC50 (JAK3) turn out when `C=CC(=O)N1CCC2(C1)CN(C(=O)c1cc(Sc3cnc(NC(=O)C4CC4)s3)c(C)cc1OC)C2` [Compound 46] was run?
A: 100 to 1000 nM

Q: And the IC50 (TXK)?
A: < 10 nM

Q: What about the TXK/ITK (TXK) of the same compound?
A: 3.4072

Q: And the IC50 (ITK)?
A: < 10 nM

Q: What about the IC50 (BTK) of the same compound?
A: 10 to 100 nM

Q: `C=CC(=O)N1CCCN(C(=O)c2cc(Sc3cnc(NC(=O)CC)s3)c(C)cc2OC)C[C@H]1C` [Compound 47] was tested. Which IC50 (JAK3) did it give?
A: ≥ 10000 nM

Q: What about the IC50 (TXK) of the same compound?
A: ≥ 10000 nM

Q: And the TXK/ITK (TXK)?
A: 181.42

Q: And the IC50 (ITK)?
A: 10 to 100 nM

Q: And the IC50 (BTK)?
A: ≥ 10000 nM

Q: With `C=CC(=O)N1CCCN(C(=O)c2cc(Sc3cnc(NC(=O)c4cccc(CN(C)C)c4)s3)c(C)cc2OC)C[C@H]1C` [Compound 48] as the compound, how does the IC50 (JAK3) read?
A: ≥ 10000 nM

Q: And the IC50 (TXK)?
A: ≥ 10000 nM

Q: What about the TXK/ITK (TXK) of the same compound?
A: 519.55

Q: What about the IC50 (ITK) of the same compound?
A: 10 to 100 nM

Q: What about the IC50 (BTK) of the same compound?
A: 1000 to 10000 nM

Q: Which IC50 (JAK3) does the source give for `C=CC(=O)N1CCCN(C(=O)c2cc(Sc3cnc(NC(=O)c4cccc(CN5CCOCC5)c4)s3)c(C)cc2OC)CC1` [Compound 49] here?
A: 1000 to 10000 nM

Q: What about the IC50 (TXK) of the same compound?
A: 1000 to 10000 nM

Q: What about the TXK/ITK (TXK) of the same compound?
A: 37.652

Q: And the IC50 (ITK)?
A: 10 to 100 nM

Q: What about the IC50 (BTK) of the same compound?
A: 1000 to 10000 nM

Q: Which results are given for `C=CC(=O)N1CCN(C(=O)c2cc(Sc3cnc(NC(=O)CC)s3)c(C)cc2OC)[C@@H](C)C1` [Compound 51]?
A: IC50 (JAK3): 1000 to 10000 nM; IC50 (TXK): 10 to 100 nM; TXK/ITK (TXK): 14.645; IC50 (ITK): < 10 nM; IC50 (BTK): 100 to 1000 nM

Q: What does the source list for `C=CC(=O)N1CCCN(C(=O)c2cc(Sc3cnc(NC(=O)C4CC4)s3)c(C)cc2OC)CCC1` [Compound 53]?
A: IC50 (JAK3): 1000 to 10000 nM; IC50 (TXK): 100 to 1000 nM; IC50 (ITK): < 10 nM; IC50 (BTK): 100 to 1000 nM

Q: Which results are given for `C=CC(=O)N1CCN(C(=O)c2cc(Sc3cnc(NC(=O)C4CC4)s3)c(C)cc2OC)CC[C@H]1C` [Compound 54]?
A: IC50 (JAK3): 1000 to 10000 nM; IC50 (TXK): 10 to 100 nM; TXK/ITK (TXK): 0.804; IC50 (ITK): 10 to 100 nM; IC50 (BTK): 1000 to 10000 nM

Q: For `C=CC(=O)N1CCN(C(=O)c2cc(Sc3cnc(NC(=O)C4CC4)s3)c(C)cc2OC)CC(F)C1` (stereo not drawn) [Compound 55], which IC50 (JAK3) is on record?
A: 10 to 100 nM

Q: What about the IC50 (TXK) of the same compound?
A: < 10 nM

Q: What about the TXK/ITK (TXK) of the same compound?
A: 6.2416

Q: And the IC50 (ITK)?
A: < 10 nM

Q: What about the IC50 (BTK) of the same compound?
A: 10 to 100 nM

Q: Which results are given for `C=CC(=O)N1CCCN(C(=O)c2cc(Sc3cnc(NC(=O)c4cccc(CN[C@H](C)C(C)(C)C)c4)s3)c(C)cc2OC)CC1` [Compound 56]?
A: IC50 (JAK3): 1000 to 10000 nM; IC50 (TXK): 1000 to 10000 nM; TXK/ITK (TXK): 168.17; IC50 (ITK): < 10 nM; IC50 (BTK): 100 to 1000 nM

Q: What does the source list for `C=CC(=O)N1CCCN(C(=O)c2cc(Sc3cnc(NC(=O)C(C)(C)C)s3)c(C)cc2OC)CC1` [Compound 57]?
A: IC50 (JAK3): ≥ 10000 nM; IC50 (TXK): ≥ 10000 nM; TXK/ITK (TXK): 15.564; IC50 (ITK): 100 to 1000 nM; IC50 (BTK): ≥ 10000 nM

Q: How did the IC50 (JAK3) turn out when `C=CC(=O)N1CCCN(C(=O)c2cc(CSc3cnc(NC(=O)C4CC4)s3)cc(C)c2C)CC1` [Compound 58] was run?
A: 1000 to 10000 nM

Q: What about the IC50 (TXK) of the same compound?
A: 1000 to 10000 nM

Q: And the TXK/ITK (TXK)?
A: 2.9749

Q: And the IC50 (ITK)?
A: 1000 to 10000 nM

Q: And the IC50 (BTK)?
A: ≥ 10000 nM

Q: For `C=CC(=O)N1CCCN(C(=O)c2cc(Sc3cnc(NC(=O)C4CC4)s3)c(C)cc2C)C[C@H]1C` [Compound 59], which IC50 (JAK3) is on record?
A: 1000 to 10000 nM

Q: What about the IC50 (TXK) of the same compound?
A: 100 to 1000 nM

Q: What about the TXK/ITK (TXK) of the same compound?
A: 166.05

Q: What about the IC50 (ITK) of the same compound?
A: < 10 nM

Q: What about the IC50 (BTK) of the same compound?
A: 1000 to 10000 nM

Q: `C=CC(=O)N1CCCN(C(=O)c2cc(Sc3cnc(NC(=O)C4CC4)s3)c(C)cc2F)C[C@H]1C` [Compound 60] was tested. Which IC50 (JAK3) did it give?
A: ≥ 10000 nM

Q: And the IC50 (TXK)?
A: 1000 to 10000 nM

Q: And the TXK/ITK (TXK)?
A: 21.785

Q: And the IC50 (ITK)?
A: 10 to 100 nM

Q: And the IC50 (BTK)?
A: ≥ 10000 nM

Q: `C=CC(=O)N1CCCN(C(=O)c2cc(Sc3cnc(NC(=O)C4CC4)s3)c(C)cc2Cl)C[C@H]1C` [Compound 61] was tested. Which IC50 (JAK3) did it give?
A: 1000 to 10000 nM

Q: And the IC50 (TXK)?
A: 100 to 1000 nM

Q: What about the TXK/ITK (TXK) of the same compound?
A: 50.716

Q: And the IC50 (ITK)?
A: 10 to 100 nM

Q: And the IC50 (BTK)?
A: ≥ 10000 nM

Q: With `C=CC(=O)N1CCCN(C(=O)c2cc(Sc3cnc(NC(=O)C4CC4)s3)c(Cl)cc2C)C[C@H]1C` [Compound 62] as the compound, how does the IC50 (JAK3) read?
A: 1000 to 10000 nM

Q: And the IC50 (TXK)?
A: 1000 to 10000 nM

Q: And the TXK/ITK (TXK)?
A: 320.16

Q: And the IC50 (ITK)?
A: < 10 nM

Q: And the IC50 (BTK)?
A: 1000 to 10000 nM

Q: With `C=CC(=O)N1CCCN(C(=O)c2cc(Sc3cnc(NC(=O)C4CC4)s3)cc(C)c2C)C[C@H]1C` [Compound 63] as the compound, how does the IC50 (JAK3) read?
A: ≥ 10000 nM

Q: What about the IC50 (TXK) of the same compound?
A: 1000 to 10000 nM

Q: And the TXK/ITK (TXK)?
A: 61.086

Q: And the IC50 (ITK)?
A: 100 to 1000 nM

Q: And the IC50 (BTK)?
A: ≥ 10000 nM
